# Measurements published in patent US12544365B2, “Pharmaceutical combination of an EP4 antagonist and immune checkpoint inhibitors for the treatment of tumours” (ROTTAPHARM BIOTECH S.R.L., priority 2019, dated 2026).
# Molecular target: T1, rat EP4R (Rattus norvegicus, UniProt P43114)
# T1 construct: whole blood culture samples from animals treated orally with vehicle or Compound 1; from tissue; host or cells: whole blood of male Wistar Han rats
# Assay: Ex vivo TNF-α release induced by LPS in whole blood of orally dosed rats: PGE2 IC50 vs dose and time
# Description: Male Wistar Han rats (250-300 g b.w., Charles River, Italy) were housed six per cage in a temperature controlled room, set to maintain temperature within the range of 20° C. ±2° C. and relative humidity within the range of 55%+10 and with a 12-h/12-h light/dark cycle. Throughout the study animals had free access to standard laboratory chow (Teklad rodent diet 2018, Harlan Laboratories, S. Pietro al Natisone, UD, Italy) and drinking water. Care and handling of the animals were in accordance with the guidelines of the Local Government and the regulations of the European Community.
# Authorization for experimental procedures was granted by the Italian Ministry of Health. […]
# In details the day of the experiments, animals were anaesthetized with 2.5-3% isoflurane in O2 inside an induction chamber and blood (in average 7 ml/rat) was drawn from the abdominal aorta. […] Compared to the reference standard curve, TNF-α levels in samples were expressed as concentration (pg/ml).
# For each animal, percent of inhibition by different PGE2 concentrations with respect to control sample, and the corresponding IC50 (or the half-maximal inhibitory concentration in a range 0-100% inhibition) were calculated by linear regression analysis. Moreover, in each treatment group either the mean TNF-α levels and the mean % inhibition by PGE2 were calculated. […]
# T1 sequence (P43114 whole entry): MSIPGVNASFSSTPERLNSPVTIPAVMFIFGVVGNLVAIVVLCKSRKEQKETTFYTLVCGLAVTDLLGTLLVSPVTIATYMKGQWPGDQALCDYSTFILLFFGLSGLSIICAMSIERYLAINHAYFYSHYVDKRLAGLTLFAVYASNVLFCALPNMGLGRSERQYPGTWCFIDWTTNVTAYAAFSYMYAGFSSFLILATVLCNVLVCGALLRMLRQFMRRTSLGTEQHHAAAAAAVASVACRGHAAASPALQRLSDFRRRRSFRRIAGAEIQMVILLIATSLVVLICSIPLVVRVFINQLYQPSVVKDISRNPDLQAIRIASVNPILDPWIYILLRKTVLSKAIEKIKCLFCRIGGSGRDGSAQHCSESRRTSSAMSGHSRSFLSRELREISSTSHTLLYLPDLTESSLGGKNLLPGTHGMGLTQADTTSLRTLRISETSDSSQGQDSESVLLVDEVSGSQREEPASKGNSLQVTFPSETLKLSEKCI
smiles,measurement,setting,value
"O=C([O-])c1ccc(C2(NC(=O)[C@H]3CC4(CCN3Cc3ccc(C(F)(F)F)cc3)CC4)CC2)cc1.[Na+] [Compound 1, sodium (R)-4-(1-(6-(4-(trifluoromethyl)benzyl)-6-azaspiro[2.5]octane-5-carboxamido)cyclopropyl)benzoate]","reversion of PGE2 TNF-α release inhibition, time course","10 mg/kg oral, blood sampling 1-3-24 hours",still evident also 24 hours after Compound 1 administration
same,minimum effective dose,"oral, rat, reversion of PGE2 inhibition of TNF-α release",10 mg/kg
